Results taken from US3984431A, “Derivatives of pyrazole-5-acetic acid” (priority 1972, dated 1976).
Where two headings read alike, the source gives them in different places.

Tests used:
Cotton pellet granulema = assay: Anti-inflammatory action: cotton pellet granuloma (Winter); format: in vivo, rat; settings: read-out: 50% effective dose
Description: (§1) In all cases the products of the invention are compared to the following reference substances, aspirin, phenylbutazone, indomethacine.

[1] = system: Pain (cramp) caused by acetic acid; assay: Analgesic action: pain (cramp) caused by acetic acid in the mouse (Siegmund); format: in vivo; settings: for ED50: sc, read-out: 50% effective dose
Protocol: The analgesic action was tested in relation to the pain caused in the mouse by the subcutaneous injection of acetic acid.
as §1

[2] = system: Brewer's yeast induced pyrexia; assay: Antipyretic action: Brewer's yeast induced pyrexia (Bianchi); format: in vivo, rat; settings: read-out: 50% effective dose
Description: Antipyretic action was established on the pyretic rat by the Bianchi method.
as §1

[3] = system: Ultra-violet induced erythema; assay: Anti-inflammatory action: ultra-violet induced erythema (Winter); format: in vivo, guinea-pig; settings: Cavia porcellus, read-out: 50% effective dose
Description: 2. Ultra-violet induced erythema; method of Winter Arch. intern.
as §1

[4] = system: Carragheen induced oedema; assay: Anti-inflammatory action: carragheen induced oedema (Winter); format: in vivo, rat; settings: read-out: 50% effective dose
Description: 1. Carragheen induced odema; method of Winter Arch. intern.
as §1

[5] = Overall appraisal of anti-inflammatory, antipyretic and analgesic tests versus reference substances; format: in vivo; settings: for overall activity compared with example 5 (in words): compared to example 5; for overall activity compared with phenylbutazone (in words): compared to phenylbutazone
Protocol: 1. Carragheen induced odema; method of Winter Arch. intern. Pharmacod. volume 112, page 174 (1957)
2. Ultra-violet induced erythema; method of Winter Arch. intern. Pharmacod. volume 114, page 261 (1958)
3. The formation of granulomae caused by the sub-cutaneous implantation of pellets of cotton in the rat; method of Winter Journal of the American Pharmaceutical Association, Science Edition, Volume 46, page 515 (1957)
The analgesic action was tested in relation to the pain caused in the mouse by the subcutaneous injection of acetic acid. Method based upon that of Siegmund, Proceedings of the Society of Experimental Biology and Medicine, volume 75, page 729 (1957)
Antipyretic action was established on the pyretic rat by the Bianchi method. Arzneimittel Forschung, volume 17, page 246 (1967)
as §1

[6] = rat, oral administration, sub-cutaneous implantation of cotton pellets
[7] = mouse, acetic acid injected subcutaneously
[8] = guinea-pig, oral administration

Row | SMILES | ED50 (Cotton pellet granulema; [6]) [mg/kg] | ED50 [1, 7] [mg/kg] | ED50 ([2]; pyretic rat) [mg/kg] | ED50 [3, 8] [mg/kg] | ED50 ([4]; rat, oral administration) [mg/kg] | overall activity compared with example 5 (in words) [5] | ED50 (Cotton pellet granulema; Rattus norvegicus, po) [mg/kg] | ED50 ([1]; Mus musculus) [mg/kg] | ED50 ([2]; Rattus norvegicus) [mg/kg] | ED50 ([3]; po) [mg/kg] | ED50 ([4]; Rattus norvegicus, po) [mg/kg] | analgesic effect (in words) ([1]; from the table) | overall activity compared with indomethacine (in words) ([5]; compared to indomethacine) | overall activity compared with phenylbutazone (in words) [5] | anti-inflammatory and anti-pyretic activity (in words) ([5]; from the table)
1 | CCCCC1C(=O)N(c2ccccc2)N(c2ccccc2)C1=O [PHENYLBUTAZONE, phenylbutazone, reference compound] | 200 | 110 | 10 | 8.5 | 120 |  |  |  |  |  |  |  |  |  | 
2 | O=C(O)Cc1c(-c2ccccc2)c(-c2ccccc2)nn1Cc1ccccc1 [Example 1, 1-benzyl-3,4-diphenylpyrazolyl-5-acetic acid] | 80 | 150 | 1 | 1.6 | 60 | active substances, although slightly less so than example 5 |  |  |  |  |  |  |  |  | 
3 | COc1ccc2c(c1)c(CC(=O)O)c(C)n2C(=O)c1ccc(Cl)cc1 [INDOMETHACINE, indomethacine, reference compound] |  |  |  |  |  |  | 8 | 5.5 | 1.3 | 1.5 | 14 |  |  |  | 
4 | O=C(O)Cc1c(-c2ccccc2)c(-c2ccccc2)nn1-c1ccccc1 [Example 5, 1,3,4-triphenylpyrazolyl-5-acetic acid] | 6 | 90 | 0.6 | 3 | 14 |  |  |  |  |  |  | marked analgesic effect | at least equivalent to indomethacine | much more powerful than phenylbutazone | powerful anti-inflammatory and anti-pyretic agent
5 | CC(C)Cn1nc(-c2ccccc2)c(-c2ccccc2)c1CC(=O)O [Example 3, 1-isobutyl-3,4-diphenylpyrazolyl-5-acetic acid] | 18 | 180 | 0.5 | 1 | 30 | active substances, although slightly less so than example 5 |  |  |  |  |  |  |  | still more powerful than phenylbutazone | 
6 | CC(=O)Oc1ccccc1C(=O)O [ASPIRIN, aspirin, reference compound] |  |  |  |  |  |  |  | 130 | 30 | 50 | 180 |  |  |  | 
